Test system: Nucleic Acid
Assay: Association constant (Ka) with DNA dodecamer d(CCGGAATTCCGG) was determined
Assay type: nucleic-acid assay

Compound: CN1CCN(c2ccc3[nH]c(-c4ccc5[nH]c(-c6ccc(O)cc6)nc5c4)nc3c2)CC1
- Ka: 1.3 M⁻¹

— ChEMBL document CHEMBL1132502, “Synthesis of a fluorescent microgonotropen (FMGT-1) and its interactions with the dodecamer d(CCGGAATTCCGG)” (Bioorg Med Chem Lett, 1999)
